Like-named read-outs stand apart in the source and are kept apart here.
Columns and labels:
[1] = test system: pAKT in BT474 cells; assay: Cell-based pAKT HTRF assay in BT474 cells; settings: BT474 cells, 4 hr incubation, Compounds 10-999, read-out: pAKT inhibition IC50 in BT474 cells
Method in brief: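 Treatment lasts 4 hr in DMEM/10% FBS at 0.25% DMSO over nine 3-fold dilutions from 3 μM. The lysate is then probed by HTRF.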

[2] = molecular target: Cys242 in human PIK3CA (157-299) (Homo sapiens (Human), UniProt P42336); assay: Covalent modification assay using MALDI-TOF MS; type: biochemical; settings: 4 h reaction time point; 3.33 μM protein target, 1:7.5 protein to compound ratio (compounds 1-852)
Cys242 in human PIK3CA (157-299), sequence (P42336 157-299): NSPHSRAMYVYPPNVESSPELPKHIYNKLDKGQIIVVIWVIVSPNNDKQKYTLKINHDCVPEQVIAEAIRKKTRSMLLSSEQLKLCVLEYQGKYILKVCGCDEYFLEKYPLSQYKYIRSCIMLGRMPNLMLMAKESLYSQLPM
Method in brief: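 Covalent adduct formation was read by linear-mode MALDI-TOF with sinapinic acid matrix, reported as modified-protein peak height divided by total protein peak heights. Reactions held PIK3CA (157-299) at 1 or 3.33 μM in HEPES/NaCl/MgCl2 buffer, pH 7.3, sampled after 15 min to 4 h at room temperature.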

| IC50 [1] [nM] | IC50 ([1]; Homo sapiens, BT-474) [nM] | Compound | % of modification [2] |
| --- | --- | --- | --- |
| < 100 |  | C=CC(=O)N1CCn2nc(-c3nc(-c4cnnc(C)c4)c4ccsc4c3-c3c(F)cc(F)cc3OCC(C)O)cc2C1C (centres unmarked) [Compound 823] | A (percent of modification of PIK3CA protein ≥75%) |
| < 100 |  | C=CC(=O)N1Cc2cc(-c3nc(-c4ccc5nn(C)cc5c4)c4ccsc4c3-c3c(F)cc(F)cc3OCCO)nn2CC1C (centres unmarked) [Compound 832] | A (percent of modification of PIK3CA protein ≥75%) |
| < 100 |  | C=CC(=O)N1CCn2nc(-c3nc(-c4cn(C)cn4)c4ccsc4c3-c3c(F)cc(F)cc3OCC(C)O)cc2C1C (centres unmarked) [Compound 833] | A (percent of modification of PIK3CA protein ≥75%) |
| < 100 |  | C=CC(=O)N1Cc2cc(-c3nc(-c4ccc5c(c4)C(=O)NC5)c4ccsc4c3-c3c(F)cc(F)cc3OC)nn2C[C@H]1C [Compound 837] | A (percent of modification of PIK3CA protein ≥75%) |
| < 100 |  | C=CC(=O)N1Cc2cc(-c3nc(-c4ccnc(N(C)C)c4)c4ccsc4c3-c3c(F)cc(F)cc3OCCOC)nn2C[C@H]1C [Compound 839] | A (percent of modification of PIK3CA protein ≥75%) |
| < 100 |  | C=CC(=O)N1Cc2cc(-c3nc(-c4cnccn4)c4ccsc4c3-c3c(F)cc(F)cc3OCCOC)nn2C[C@H]1C [Compound 840] | A (percent of modification of PIK3CA protein ≥75%) |
| < 100 |  | C=CC(=O)N1Cc2cc(-c3nc(-c4ccc5ncn(C)c(=O)c5c4)c4ccsc4c3-c3c(F)cc(F)cc3OCCOC)nn2C[C@H]1C [Compound 842] | A (percent of modification of PIK3CA protein ≥75%) |

The remaining lines, values behind:

| Compound | IC50 [1] [nM] | IC50 ([1]; Homo sapiens, BT-474) [nM] | % of modification [2] |
| --- | --- | --- | --- |
| C=CC(=O)N1Cc2cc(-c3nc(-n4cnc(C)c4)c4ccsc4c3-c3c(F)cc(F)cc3OCCOC)nn2C[C@H]1C [Compound 824] | < 100 |  | A (percent of modification of PIK3CA protein ≥75%) |
| C=CC(=O)N1Cc2cc(-c3nc(-c4cnc5oc(C)nc5c4)c4ccsc4c3-c3c(F)cc(F)cc3OCCOC)nn2C[C@H]1C [Compound 825] | < 100 |  | A (percent of modification of PIK3CA protein ≥75%) |
| C=CC(=O)N1Cc2cc(-c3nc(-c4cnnc(C)c4)c4ccsc4c3-c3c(F)cc(F)cc3OCCO)nn2CC1C (centres unmarked) [Compound 829] | < 100 |  | A (percent of modification of PIK3CA protein ≥75%) |
| C=CC(=O)N1Cc2cc(-c3nc(-c4cnc(C)nc4)c4ccsc4c3-c3c(F)cc(F)cc3OCCO)nn2CC1C (centres unmarked) [Compound 831] | < 100 |  | A (percent of modification of PIK3CA protein ≥75%) |
| C=CC(=O)N1Cc2cc(-c3nc(-c4ccc5c(c4)CCN(C)CC5)c4ccsc4c3-c3c(F)cc(F)cc3OCCOC)nn2C[C@H]1C [Compound 841] | < 100 |  | A (percent of modification of PIK3CA protein ≥75%) |
| C=CC(=O)N1Cc2cc(-c3nc(-c4cn(C)cn4)c4ccsc4c3-c3c(F)cc(F)cc3OC)nn2C[C@H]1C [Compound 843] | < 100 |  | A (percent of modification of PIK3CA protein ≥75%) |
| C=CC(=O)N1Cc2cc(-c3nc(-c4ccc5cn(C)nc5c4)c4ccsc4c3-c3c(F)cc(F)cc3OC)nn2C[C@H]1C [Compound 844] | < 100 |  | A (percent of modification of PIK3CA protein ≥75%) |
| C=CC(=O)N1CCn2nc(-c3nc(-c4ccc5c(c4)C(=O)NC5)c4ccsc4c3-c3c(F)cc(F)cc3OCCOC)cc2[C@H]1C [Compound 845, 6-((S)-6-((R)-5-acryloyl-4-methyl-4,5,6,7-tetrahydropyrazolo[1,5-a]pyrazin-2-yl)-7-(2,4-difluoro-6-(2-methoxyethoxy)phenyl)thieno[3,2-c]pyridin-4-yl)isoindolin-1-one] |  | < 100 | A (percent of modification of PIK3CA protein ≥75%) |
| C=CC(=O)N1CCn2nc(-c3nc(-c4ccc5c(c4)C(=O)N(C)C5)c4ccsc4c3-c3c(F)cc(F)cc3OCCOC)cc2[C@H]1C [Compound 846] | < 100 |  | A (percent of modification of PIK3CA protein ≥75%) |

— patent US20250230138A1, “COMPOUNDS HAVING A T-STRUCTURE FORMED BY AT LEAST FOUR CYCLES FOR USE IN THE TREATMENT OF CANCER AND OTHER INDICATIONS” (TheRas, Inc., priority 2022, published 2025)
